Source: ChEMBL document CHEMBL5352390, “Design, synthesis and biological evaluation of (Quinazoline 4-yloxy)acetamide and (4-oxoquinazoline-3(4H)-yl)acetamide derivatives as inhibitors of Mycobacterium tuberculosis bd oxidase” (2022)
Converted amounts (≈) assume the structure as drawn.

test system: Mycobacterium tuberculosis; test: Antimycobacterial activity against Mycobacterium tuberculosis H37Rv harboring qcrB deletion mutant assessed as inhibition of bacterial growth incubated for 7 days by resazurin microplate assay; type: functional; settings: time 7 day

**Q.** `Cc1ccccc1NC(=O)COc1ncnc2ccccc12` was tested. Which MIC did it give?
**A.** >32 µM

**Q.** `O=C(Cn1cnc2ccccc2c1=O)Nc1ccc(OC(F)(F)F)cc1` was tested. Which MIC did it give?
**A.** >32 µM

**Q.** `O=C(COc1ncnc2ccccc12)Nc1ccccc1` was tested. Which MIC did it give?
**A.** 8 µM (≈ 2.23 µg/mL)

**Q.** How did the MIC turn out when `O=C(COc1ncnc2ccccc12)NCc1ccccc1` was run?
**A.** >32 µM

**Q.** Which MIC does the source give for `O=C(COc1ncnc2ccccc12)Nc1ccc(C(F)(F)F)cc1` here?
**A.** >32 µM

**Q.** With `O=C(Cn1cnc2ccccc2c1=O)NC1=C(C(F)(F)F)CCC=C1` as the molecule, how does the MIC read?
**A.** >32 µM

**Q.** Which MIC does the source give for `O=C(COc1ncnc2ccccc12)Nc1cccc2ccccc12` here?
**A.** >32 µM

**Q.** Which MIC does the source give for `O=C(COc1ncnc2ccccc12)NCc1ccc(N2CCN(Cc3ccccc3)CC2)cc1` here?
**A.** >32 µM

**Q.** `O=C(Cn1cnc2ccccc2c1=O)Nc1ccc(Br)cc1` was tested. Which MIC did it give?
**A.** >32 µM

**Q.** With `COc1ccc(N2CCN(c3ccc(CNC(=O)COc4ncnc5ccccc45)cc3)CC2)cc1` as the molecule, how does the MIC read?
**A.** >32 µM

**Q.** How did the MIC turn out when `O=C(COc1ncnc2ccccc12)Nc1ccc(Br)cc1` was run?
**A.** >32 µM

**Q.** With `O=C(COc1ncnc2ccccc12)Nc1ccc(OC(F)(F)F)cc1` as the molecule, how does the MIC read?
**A.** >32 µM

**Q.** `Cc1ccc(NC(=O)COc2ncnc3ccccc23)cc1` was tested. Which MIC did it give?
**A.** >32 µM

**Q.** For `COc1ccccc1NC(=O)COc1ncnc2ccccc12`, which MIC is on record?
**A.** >32 µM

**Q.** Which MIC does the source give for `O=C(COc1ncnc2ccccc12)NCc1ccc(N2CCN(c3ccc(F)cc3)CC2)cc1` here?
**A.** >32 µM

**Q.** Which MIC does the source give for `COc1ccccc1NC(=O)Cn1cnc2ccccc2c1=O` here?
**A.** >32 µM

**Q.** How did the MIC turn out when `O=C(COc1ncnc2ccccc12)Nc1ccc(Cl)cc1` was run?
**A.** 16 µM (≈ 5.02 µg/mL)

**Q.** Which MIC does the source give for `COc1ccc(NC(=O)COc2ncnc3ccccc23)cc1` here?
**A.** >32 µM

**Q.** Which MIC does the source give for `O=C(COc1ncnc2ccccc12)Nc1ccc(F)cc1` here?
**A.** >32 µM

**Q.** Which MIC does the source give for `O=C(COc1ncnc2ccccc12)NCc1ccc(N2CCN(c3ccccc3)CC2)cc1` here?
**A.** >32 µM

**Q.** With `O=C(Cn1cnc2ccccc2c1=O)Nc1ccccc1` as the molecule, how does the MIC read?
**A.** >32 µM

**Q.** `O=C(Cn1cnc2ccccc2c1=O)Nc1ccc(C(F)(F)F)cc1` was tested. Which MIC did it give?
**A.** >32 µM

**Q.** Which MIC does the source give for `O=C(Cn1cnc2ccccc2c1=O)Nc1ccc(F)cc1` here?
**A.** >32 µM

**Q.** For `O=C(Cn1cnc2ccccc2c1=O)Nc1ccc(Cl)cc1`, which MIC is on record?
**A.** >32 µM

**Q.** Which MIC does the source give for `CSc1ccc(NC(=O)Cn2cnc3ccccc3c2=O)cc1` here?
**A.** >32 µM

**Q.** With `O=C(COc1ncnc2ccccc12)NCc1ccc(N2CCC(c3ccccc3)CC2)cc1` as the molecule, how does the MIC read?
**A.** >32 µM

**Q.** With `Cc1ccc(NC(=O)Cn2cnc3ccccc3c2=O)cc1` as the molecule, how does the MIC read?
**A.** >32 µM

**Q.** `COc1ccc(NC(=O)Cn2cnc3ccccc3c2=O)cc1` was tested. Which MIC did it give?
**A.** >32 µM

**Q.** With `O=C(Cn1cnc2ccccc2c1=O)Nc1ccc([N+](=O)[O-])cc1` as the molecule, how does the MIC read?
**A.** >32 µM
